Results on 1 compound are retold here after patent US20240043860A1, “NOVEL HYDROXYPHENYLPYRUVATE DIOXYGENASE POLYPEPTIDES AND METHODS OF USE THEREOF” (Syngenta Crop Protection AG, priority 2020, published 2024).

The structures appear in SMILES notation. Several values for one entry are separate records, joined by “and”; a condition that tells them apart may be missing. Equal values may be shown once.

Test in all cases: spray test, herbicidal damage scoring
What all share (format): in vivo

The test system of test [1] is transgenic tobacco plants expressing mutant HPPD SEQ ID NO: 14. The protocol: Avena sativa HPPD or orthologues and variants thereof, for example SEQ IDs 1-63 and 122-127, were expressed in transgenic tobacco. DNA sequences that encode these polypeptides (optimized for tobacco or, optionally, codon optimized according to a target crop such as soybean) were prepared synthetically. Each sequence was designed to include a 5′ fusion with TMV omega 5′ leader sequence such that they are flanked at the 5′ end with XhoI and at the 3′ end with KpnI to facilitate direct cloning into a suitable binary vector for Agrobacterium-based plant transformation.
In one example, the TMV omega 5′ leader and a HPPD encoding gene of interest is excised using XhoI/KpnI and cloned into similarly digested binary vector pBIN 19 (Bevan, Nucl. Acids Res. (1984) behind a double enhanced 35S promoter ahead of a NOS 3′ transcription terminator and then transformed into E. coli DH5 alpha competent cells. DNA recovered from the E. coli is used to transform Agrobacterium tumefaciens LBA4404, and transformed bacteria are selected on media contain rifampicin and kanamycin. Tobacco tissue is subjected to Agrobacterium-mediated transformation using methods well described in the art or as described herein. For example, a master plate of Agrobacterium tumefaciens containing the HPPD expressing the binary vector is used to inoculate 10 ml LB (L broth) containing 100 mg/l Rifampicin plus 50 mg/l Kanamycin using a single bacterial colony. This is incubated overnight at 28° C. shaking at 200 rpm. This entire overnight culture is used to inoculate a 50 ml volume of LB containing the same antibiotics. Again this is cultured overnight at 28° C. shaking at 200 rpm. The Agrobacterium cells are pelleted by centrifuging at 3000 rpm for 15 minutes and then resuspended in MS (Murashige and Skoog) medium containing 30 g/l sucrose, pH 5.9 to an OD […]=0.6. This suspension is dispensed in 25 ml aliquots into petri dishes.
Once rooted, plantlets are transferred from agar and potted into 50% peat, 50% John Innes Soil No. 3 or, for example, MetroMix® 380 soil (Sun Gro Horticulture, Bellevue, WA) with slow-release fertilizer in 3 inch round or 4 inch square pots and left regularly watered to establish for 8-12d in the glass house. Glass house conditions are about 24-27° C. day; 18-21° C. night and approximately a 14h (or longer in UK summer) photoperiod. Humidity is adjusted to ˜65% and light levels used are up to 2000 umol/m^2 at bench level. Once new tissue emerged and plants reach the 2-4 leaf stage, some of the clones from each event are sprayed with an HPPD inhibitor of interest selected from the herbicides listed in reference to Example 1. […] For example Callisto® is mixed in water with 0.2-0.25% X-77 surfactant and sprayed from a boom on a suitable track sprayer moving at 2 mph in a DeVries spray chamber (Hollandale, MN) with the nozzle about 2 inches from the plant tops.
Plants are assessed for damage and scored at, for example, 7 and 14 days after treatment (DAT). About 20-30 TO events are produced for a number of HPPD variant genes.
Plants of events showing the least damage are grown to flowering, then bagged and allowed to self. […] Single copy events amongst the Ti plant lines are identified by their 3:1 segregation ratio (with respect to kanamycin and/or herbicide) and by quantitative RT-PCR. Seed from the thus selected Ti tobacco (var. Samsun) lines are sown in 3 inch diameter pots containing 50% peat and 50% John Innes Soil No. 3. After growth to the 3 leaf stage, plants are sprayed as described above in order to test for herbicide tolerance relative to like-treated non-transgenic tobacco plants, and also in comparison with like-treated Ti plants expressing the base HPPD SEQ IDs 122-125. HPPD expression levels were monitored by Western analysis. […]

Test [2] relates to transgenic tobacco plants expressing mutant HPPD SEQ ID NO: 124. Conditions: Table 4.2, 7 days after treatment, 100=complete death, 0=no damage, one value per event. The protocol:
(§1) DNA sequences that encode these polypeptides (optimized for tobacco or, optionally, codon optimized according to a target crop such as soybean) were prepared synthetically. Each sequence was designed to include a 5′ fusion with TMV omega 5′ leader sequence such that they are flanked at the 5′ end with XhoI and at the 3′ end with KpnI to facilitate direct cloning into a suitable binary vector for Agrobacterium-based plant transformation.
(§2) For example, a master plate of Agrobacterium tumefaciens containing the HPPD expressing the binary vector is used to inoculate 10 ml LB (L broth) containing 100 mg/l Rifampicin plus 50 mg/l Kanamycin using a single bacterial colony. This is incubated overnight at 28° C. shaking at 200 rpm. This entire overnight culture is used to inoculate a 50 ml volume of LB containing the same antibiotics. Again this is cultured overnight at 28° C. shaking at 200 rpm. The Agrobacterium cells are pelleted by centrifuging at 3000 rpm for 15 minutes and then resuspended in MS (Murashige and Skoog) medium containing 30 g/l sucrose, pH 5.9 to an OD […]=0.6. This suspension is dispensed in 25 ml aliquots into petri dishes.
(§3) Once rooted, plantlets are transferred from agar and potted into 50% peat, 50% John Innes Soil No. 3 or, for example, MetroMix® 380 soil (Sun Gro Horticulture, Bellevue, WA) with slow-release fertilizer in 3 inch round or 4 inch square pots and left regularly watered to establish for 8-12d in the glass house. Glass house conditions are about 24-27° C. day; 18-21° C. night and approximately a 14h (or longer in UK summer) photoperiod.
(§4) About 20-30 TO events are produced for a number of HPPD variant genes.
(§5) Single copy events amongst the Ti plant lines are identified by their 3:1 segregation ratio (with respect to kanamycin and/or herbicide) and by quantitative RT-PCR. Seed from the thus selected Ti tobacco (var. Samsun) lines are sown in 3 inch diameter pots containing 50% peat and 50% John Innes Soil No. 3. […] HPPD expression levels were monitored by Western analysis.
(§6) Tables 4.1-4.9 show the herbicidal damage scoring on transgenic tobacco plants 7 days after treatment. A score of 100=complete death and 0=no damage observed.

Test [3] deals with transgenic tobacco plants expressing mutant HPPD SEQ ID NO: 125. Conditions: Table 4.3, 7 days after treatment, 100=complete death, 0=no damage, one value per event. The protocol: as §1, §2, §3, §4, §5, §6

Turning to `COc1ccc(-n2nc(C)cc(C(=O)C3C(=O)CCCC3=O)c2=O)cc1OC` [Herbicide C, dioxopyritrione], the damage entry in test [1] (200 g/ha, SEQ ID 14 plants compared to plants expressing SEQ IDs 122, 124 or 125) is “reduced damage”; in test [1] (several lines expressing SEQ ID NO: 14, 100 g/ha (Table 3.1)), “less than 10%”. For the same compound, the stunting result in test [1] (FIG. 4, 300 ai/ha, SEQ ID NO: 14 plants compared to plants expressing the wild-type HPPD (SEQ ID NO: 1)) is recorded as “significantly reduced stunting”. Moreover, in test [1] (FIG. 4, 300 ai/ha, some multi-copy events expressing SEQ ID NO: 14), the chlorosis entry is “Almost no chlorosis”. In test [1] (FIG. 5, 50 g/ha, SEQ ID NO: 14 plants compared to plants expressing SEQ ID NO: 122 or SEQ ID NO: 17), the “chlorosis (yellowing of leaf tissue)” value is on record as “significantly reduced chlorosis”. Also, the “tolerance in comparison to SEQ ID NO: 122” value in test [1] (many lines expressing SEQ ID NO: 14, 100 g/ha (Table 3.1)) was “significantly improved tolerance”. Further, the “herbicidal damage scoring, Herbicide C (200 g/ha)” value in test [2] is 60 and 65 and 50; in test [3] it was 60 and 80 and 75 and 85.
